What was measured:
wild mustard = test: Test D postemergence; format: in vivo, Sinapis arvensis; settings: Brassica, post-emergence
Method in brief: (§1)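 After treatment, visual injury versus untreated plants, 0–100 scale, assessed at 7 to 21 days. Applications were made preemergence to silt loam-sown seed and postemergence to seedlings 2–18 cm high in potting medium.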

bromegrass, downy [1] = test: Test D preemergence; format: in vivo, Bromus tectorum; settings: Bromus tectorum, pre-emergence
Method in brief: as §1

field poppy [2] = test: Test D preemergence; format: in vivo, Papaver rhoeas; settings: Papaver rhoeas, pre-emergence
Method in brief: as §1

chamomile = test: Test D preemergence; format: in vivo, Matricaria inodora; settings: Tripleurospermum inodorum, pre-emergence
Method in brief: as §1

Brazilian crabgrass = test: Test E postemergence; format: in vivo, Digitaria horizontalis; settings: Digitaria horizontalis, post-emergence, read-out: Plant response rating, Crabgrass, Brazil
Method in brief: (§2)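 Compound in a non-phytotoxic solvent mixture with surfactant was applied preemergence to seeds in silt loam soil, or postemergence to plants 2 to 18 cm tall grown in peat-based potting medium. Plants were kept in a greenhouse for 14 to 21 days, then rated visually against untreated controls on a 0 (no effect) to 100 (complete control) scale.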

spring wheat = test: Test D postemergence; format: in vivo, Triticum aestivum; settings: Triticum aestivum, post-emergence
Method in brief: as §1

winter wheat = test: Test D postemergence; format: in vivo, Triticum aestivum; settings: Triticum aestivum, post-emergence
Method in brief: as §1

wild oat = test: Test D postemergence; format: in vivo, Avena fatua; settings: Avena fatua, post-emergence
Method in brief: as §1

field violet = test: Test D preemergence; format: in vivo, Viola arvensis; settings: Viola arvensis, pre-emergence
Method in brief: as §1

field poppy [3] = test: Test D postemergence; format: in vivo, Papaver rhoeas; settings: Papaver rhoeas, post-emergence
Method in brief: as §1

cocklebur = test: Test E preemergence; format: in vivo, Xanthium strumarium; settings: 125 g ai/ha, scale 0 to 100, 0 no effect, 100 complete control
Method in brief: as §2

bromegrass, downy [4] = test: Test D postemergence; format: in vivo, Bromus tectorum; settings: Bromus tectorum, post-emergence, Postemergence, scale 0 to 100 (0 no effect, 100 complete control), read-out: Plant response rating, Bromegrass, Downy
Method in brief: as §1

lambsquarters = test: Test D preemergence; format: in vivo, Chenopodium album; settings: Chenopodium album, pre-emergence
Method in brief: as §1

Clc1cnc(Oc2ccccc2-n2cc(Br)cn2)nc1 [Compound 7, 2-[2-(4-bromo-1H-pyrazol-1-yl)phenoxy]-5-chloropyrimidine]
pest or weed control at 16 g/ha (wild mustard; 16 g ai/ha, scale 0-100, read-out: Plant response rating, Mustard, Wild): 20% | pest or weed control at 31 g/ha (wild mustard; 31 g ai/ha, scale 0 to 100 (0 no effect, 100 complete control), read-out: Plant response rating, Mustard, Wild): 50% | pest or weed control at 62 g/ha (wild mustard; 62 g ai/ha, scale 0 to 100 (0 no effect, 100 complete control), read-out: Plant response rating, Mustard, Wild): 75% | pest or weed control at 125 g/ha (wild mustard; 125 g ai/ha, scale 0 to 100 (0 no effect, 100 complete control), read-out: Plant response rating, Mustard, Wild): 95% | pest or weed control at 250 g/ha (wild mustard; 250 g ai/ha, scale 0 to 100 (0 no effect, 100 complete control), read-out: Plant response rating, Mustard, Wild): 98% | pest or weed control at 16 g/ha (bromegrass, downy [1]; 16 g ai/ha, scale 0 (no effect) to 100 (complete control), read-out: Plant response rating, Bromegrass, Downy): 0% | pest or weed control at 31 g/ha (bromegrass, downy [1]; 31 g ai/ha, scale 0-100, read-out: Plant response rating, Bromegrass, Downy): 0% | pest or weed control at 62 g/ha (bromegrass, downy [1]; 62 g ai/ha, scale 0-100, read-out: Plant response rating, Bromegrass, Downy): 0% | pest or weed control at 125 g/ha (bromegrass, downy [1]; 125 g ai/ha, scale 0-100, read-out: Plant response rating, Bromegrass, Downy): 0% | pest or weed control at 250 g/ha (bromegrass, downy [1]; 250 g ai/ha, scale 0-100, read-out: Plant response rating, Bromegrass, Downy): 0% | pest or weed control at 16 g/ha (field poppy [2]; 16 g ai/ha, scale 0 (no effect) to 100 (complete control), read-out: Plant response rating, Field Poppy): 0% | pest or weed control at 31 g/ha (field poppy [2]; 31 g ai/ha, scale 0-100, read-out: Plant response rating, Field Poppy): 0% | pest or weed control at 62 g/ha (field poppy [2]; 62 g ai/ha, scale 0-100, read-out: Plant response rating, Field Poppy): 30% | pest or weed control at 125 g/ha (field poppy [2]; 125 g ai/ha, scale 0-100, read-out: Plant response rating, Field Poppy): 60% | pest or weed control at 250 g/ha (field poppy [2]; 250 g ai/ha, scale 0-100, read-out: Plant response rating, Field Poppy): 100% | pest or weed control at 16 g/ha (chamomile; 16 g ai/ha, scale 0 (no effect) to 100 (complete control), read-out: Plant response rating, Chamomile): 0% | pest or weed control at 31 g/ha (chamomile; 31 g ai/ha, scale 0-100, read-out: Plant response rating, Chamomile): 0% | pest or weed control at 62 g/ha (chamomile; 62 g ai/ha, scale 0-100, read-out: Plant response rating, Chamomile): 0% | pest or weed control at 125 g/ha (chamomile; 125 g ai/ha, scale 0-100, read-out: Plant response rating, Chamomile): 20% | pest or weed control at 250 g/ha (chamomile; 250 g ai/ha, scale 0-100, read-out: Plant response rating, Chamomile): 25% | pest or weed control at 31 g/ha (Brazilian crabgrass; Postemergence, 31 g ai/ha, scale 0 to 100): 10% | pest or weed control at 62 g/ha (Brazilian crabgrass; Postemergence, 62 g ai/ha, scale 0 to 100): 20% | pest or weed control at 125 g/ha (Brazilian crabgrass; Postemergence, 125 g ai/ha, scale 0 to 100): 30% | pest or weed control at 8 g/ha (Brazilian crabgrass; postemergence, 8 g ai/ha, scale 0 to 100, 0 no effect, 100 complete control): 0% | pest or weed control at 16 g/ha (Brazilian crabgrass; postemergence, 16 g ai/ha, scale 0 to 100, 0 no effect, 100 complete control): 0% | plant injury at 16 g/ha (spring wheat; 16 g ai/ha, scale 0-100, read-out: Plant response rating, Wheat, Spring): 0% | plant injury at 31 g/ha (spring wheat; 31 g ai/ha, scale 0 to 100 (0 no effect, 100 complete control), read-out: Plant response rating, Wheat, Spring): 0% | plant injury at 62 g/ha (spring wheat; 62 g ai/ha, scale 0 to 100 (0 no effect, 100 complete control), read-out: Plant response rating, Wheat, Spring): 0% | plant injury at 125 g/ha (spring wheat; 125 g ai/ha, scale 0 to 100 (0 no effect, 100 complete control), read-out: Plant response rating, Wheat, Spring): 10% | plant injury at 250 g/ha (spring wheat; 250 g ai/ha, scale 0 to 100 (0 no effect, 100 complete control), read-out: Plant response rating, Wheat, Spring): 10% | plant injury at 16 g/ha (winter wheat; 16 g ai/ha, scale 0-100, read-out: Plant response rating, Wheat, Winter): 0% | plant injury at 31 g/ha (winter wheat; 31 g ai/ha, scale 0 to 100 (0 no effect, 100 complete control), read-out: Plant response rating, Wheat, Winter): 0% | plant injury at 62 g/ha (winter wheat; 62 g ai/ha, scale 0 to 100 (0 no effect, 100 complete control), read-out: Plant response rating, Wheat, Winter): 0% | plant injury at 125 g/ha (winter wheat; 125 g ai/ha, scale 0 to 100 (0 no effect, 100 complete control), read-out: Plant response rating, Wheat, Winter): 10% | plant injury at 250 g/ha (winter wheat; 250 g ai/ha, scale 0 to 100 (0 no effect, 100 complete control), read-out: Plant response rating, Wheat, Winter): 10% | pest or weed control at 16 g/ha (wild oat; 16 g ai/ha, scale 0-100, read-out: Plant response rating, Oat, Wild): 0% | pest or weed control at 31 g/ha (wild oat; 31 g ai/ha, scale 0 to 100 (0 no effect, 100 complete control), read-out: Plant response rating, Oat, Wild): 0% | pest or weed control at 62 g/ha (wild oat; 62 g ai/ha, scale 0 to 100 (0 no effect, 100 complete control), read-out: Plant response rating, Oat, Wild): 0% | pest or weed control at 125 g/ha (wild oat; 125 g ai/ha, scale 0 to 100 (0 no effect, 100 complete control), read-out: Plant response rating, Oat, Wild): 10% | pest or weed control at 250 g/ha (wild oat; 250 g ai/ha, scale 0 to 100 (0 no effect, 100 complete control), read-out: Plant response rating, Oat, Wild): 25% | pest or weed control at 16 g/ha (field violet; 16 g ai/ha, scale 0 (no effect) to 100 (complete control), read-out: Plant response rating, Field Violet): 0% | pest or weed control at 31 g/ha (field violet; 31 g ai/ha, scale 0-100, read-out: Plant response rating, Field Violet): 0% | pest or weed control at 62 g/ha (field violet; 62 g ai/ha, scale 0-100, read-out: Plant response rating, Field Violet): 20% | pest or weed control at 125 g/ha (field violet; 125 g ai/ha, scale 0-100, read-out: Plant response rating, Field Violet): 70% | pest or weed control at 250 g/ha (field violet; 250 g ai/ha, scale 0-100, read-out: Plant response rating, Field Violet): 80% | pest or weed control at 16 g/ha (field poppy [3]; 16 g ai/ha, scale 0-100, read-out: Plant response rating, Field Poppy): 10% | pest or weed control at 31 g/ha (field poppy [3]; 31 g ai/ha, scale 0 to 100 (0 no effect, 100 complete control), read-out: Plant response rating, Field Poppy): 20% | pest or weed control at 62 g/ha (field poppy [3]; 62 g ai/ha, scale 0 to 100 (0 no effect, 100 complete control), read-out: Plant response rating, Field Poppy): 50% | pest or weed control at 125 g/ha (field poppy [3]; 125 g ai/ha, scale 0 to 100 (0 no effect, 100 complete control), read-out: Plant response rating, Field Poppy): 50% | pest or weed control at 250 g/ha (field poppy [3]; 250 g ai/ha, scale 0 to 100 (0 no effect, 100 complete control), read-out: Plant response rating, Field Poppy): 60% | Plant response rating, Cocklebur (cocklebur): 0 | pest or weed control at 16 g/ha (bromegrass, downy [4]; 16 g ai/ha): 0% | pest or weed control at 31 g/ha (bromegrass, downy [4]; 31 g ai/ha): 0% | pest or weed control at 62 g/ha (bromegrass, downy [4]; 62 g ai/ha): 0% | pest or weed control at 125 g/ha (bromegrass, downy [4]; 125 g ai/ha): 5% | pest or weed control at 250 g/ha (bromegrass, downy [4]; 250 g ai/ha): 5% | pest or weed control at 16 g/ha (lambsquarters; 16 g ai/ha, scale 0 (no effect) to 100 (complete control), read-out: Plant response rating, Lambsquarters): 0% | pest or weed control at 31 g/ha (lambsquarters; 31 g ai/ha, scale 0-100, read-out: Plant response rating, Lambsquarters): 0% | pest or weed control at 62 g/ha (lambsquarters; 62 g ai/ha, scale 0-100, read-out: Plant response rating, Lambsquarters): 30% | pest or weed control at 125 g/ha (lambsquarters; 125 g ai/ha, scale 0-100, read-out: Plant response rating, Lambsquarters): 40% | pest or weed control at 250 g/ha (lambsquarters; 250 g ai/ha, scale 0-100, read-out: Plant response rating, Lambsquarters): 60%

From patent publication US9695155B2, “Herbicidal substituted pyrimidinyloxy benzene compounds” (E. I. DU PONT DE NEMOURS AND COMPANY, priority 2013, dated 2017)
